Data from patent publication US20150374676A1, “HELICASE-PRIMASE INHIBITORS FOR USE IN A METHOD OF TREATING ALZHEIMER'S DISEASE” (AICURIS GMBH & CO. KG, priority 2013, published 2015).
Like-named read-outs stand apart in the source and are kept apart here.

Assay: Single-dose escalation pharmacokinetics in volunteers
Type: in vivo, human
Conditions: for AUC(0-t): read-out: AUC0-24h
Excerpt: Exposure of the free base form of N-[5-(aminosulfonyl)-4-methyl-1,3-thiazol-2-yl]-N-methyl-2-[4-(2-pyridinyl)-phenyl]acetamide to the human body may be measured by high pressure liquid chromatography (HPLC) by looking at different pharmacokinetic parameters in suitable bodily fluids such as for instance blood plasma and urine, the most common parameters being the Cmax, the so-called area under the curve (AUC), and the terminal half-life (t1/2Z). Hereto, the person skilled in the art understands that said parameters are determined by using adequate bioanalytical methods with adequate sensitivity, specificity, ruggedness, stability and repeatability, as for instance a qualified liquid chromatography triple quad mass spectrometry based method coupled with a suitable extraction method for the separation of the analyte from, e.g. the blood plasma.
Therefore, pharmacokinetic studies in human subjects were undertaken following both single and multiple dose administrations of the crystalline mono mesylate monohydrate salt of N-[5-(aminosulfonyl)-4-methyl-1,3-thiazol-2-yl]-N-methyl-2-[4-(2-pyridinyl)phenyl]acetamide, wherein the particle size distribution is preferably defined by d(0.1) from 2 to 100 μm, d(0.5) from 30 to 210 μm and d(0.9) from 70 to 400 μm with a specific surface area of the particles less than 1.0 m^2/g, and more preferably defined by d(0.1) from 10 to 75 μm, d(0.5) from 100 to 175 μm, d(0.9) from 200 to 350 μm with a specific surface area of the particles less than 0.3 m^2/g.
Single oral doses of the crystalline mono mesylate monohydrate salt of N-[5-(aminosulfonyl)-4methyl1,3thiazol-2-yl]-N-methyl-2-[4-(2-pyridinyl)phenyl]acetamide using the formulations in accordance with example a and Table a, were administered to six volunteers per dose step. The overall shape of the plasma concentrations vs. time profiles were similar across all doses applied (see FIG. 4 and FIG. 6).
Table b: Pharmacokinetic parameters after ascending single oral doses of crystalline mono mesylate monohydrate salt of N-[5-(aminosulfonyl)-4-methyl-1,3-thiazol-2-yl]-N-methyl-2-[4-(2-pyridinyl)phenyl]acetamide in the formulations in accordance with table a wherein the particle size distribution is preferably defined by d(0.1) from 2 to 100 μm, d(0.5) from 30 to 210 μm and d(0.9) from 70 to 400 μm with a specific surface area of the particles less than 1.0 m^2/g, and more preferably defined by d(0.1) from 10 to 75 μm, d(0.5) from 100 to 175 μm, d(0.9) from 200 to 350 μm with a specific surface area of the particles less than 0.3 m^2/g.
AUC0-∞: Area under the analyte vs. time concentration from time of administration up to infinity, calculated as
wherein AUC0-last is defined as the area under the analyte vs. time concentration up to time of the last qualifiable concentration, calculated by linear up/log down summation and Clast is defined as last quantifiable observed analyte concentration. λz is the apparent terminal elimination rate constant, determined by linear regression of terminal points of In-linear analyte concentration-time curve.
Cmax is the maximal observed analyte concentration and tmax is the time to reach Cmax;
t1/2z is defined as the apparent terminal elimination half-life, calculated as
MRT: Mean Residence Time; calculated AUMC divided by AUC, wherein AUMC is the area under the first moment of the concentration-time curve from zero up to ∞ with extrapolation of the terminal phase and AUC is the area under the concentration-time curve from zero up to ∞ with extrapolation of the terminal phase.
CL/F refers to the clearance after oral administration of a drug and Ae refers to the amount of drug excreted in the urine.

SMILES: CS(=O)(=O)O.Cc1nc(N(C)C(=O)Cc2ccc(-c3ccccn3)cc2)sc1S(N)(=O)=O [mono mesylate monohydrate salt, N-[5-(aminosulfonyl)-4-methyl-1,3-thiazol-2-yl]-N-methyl-2-[4-(2-pyridinyl)-phenyl]acetamide mono methanesulfonic acid monohydrate]
- t1/2z on average (40 mg dosage as free base equivalent, single oral dose): 72 ± 3 h
- t1/2z on average (80 mg dosage as free base equivalent, single oral dose): 74 ± 5 h
- t1/2z on average (160 mg dosage as free base equivalent, single oral dose): 63 ± 6 h
- t1/2z on average (240 mg dosage as free base equivalent, single oral dose): 64 ± 5 h
- t1/2z on average (320 mg dosage as free base equivalent, single oral dose): 57 ± 3 h
- t1/2z on average (400 mg dosage as free base equivalent, single oral dose): 57 ± 4 h
- t1/2z on average (480 mg dosage as free base equivalent, single oral dose): 53 ± 4 h
- MRT (female, plasma, single oral dose 80 mg free base equivalent, females, human, mean, n = 6): 77 h
- Tmax (female, plasma, single oral dose 80 mg free base equivalent, females, human, median, n = 6, read-out: tmax): 4 h
- AUC(0-inf) (female, single oral dose 80 mg free base equivalent, females, human, mean, n = 6, free base in plasma): 96200 ng·h/mL
- Cmax (female, single oral dose 80 mg free base equivalent, females, human, mean, n = 6, free base in plasma, read-out: Cmax): 2000 ng/mL
- AUC(0-t) (human, plasma, 80 mg dosage as free base equivalent, single oral dose): 21900 ± 2060 ng·h/mL
- Cmax (human, plasma, 80 mg dosage as free base equivalent, single oral dose, read-out: mean maximum blood plasma concentration (mean Cmax) of the free base): 1310 ± 125 ng/mL
- AUC(0-t) (human, plasma, 160 mg dosage as free base equivalent, single oral dose): 40500 ± 16700 ng·h/mL
- Cmax (human, plasma, 160 mg dosage as free base equivalent, single oral dose, read-out: mean maximum blood plasma concentration (mean Cmax) of the free base): 2610 ± 1340 ng/mL
- AUC(0-t) (human, plasma, 240 mg dosage as free base equivalent, single oral dose): 59600 ± 12800 ng·h/mL
- Cmax (human, plasma, 240 mg dosage as free base equivalent, single oral dose, read-out: mean maximum blood plasma concentration (mean Cmax) of the free base): 3600 ± 752 ng/mL
- AUC(0-t) (human, plasma, 320 mg dosage as free base equivalent, single oral dose): 76200 ± 27600 ng·h/mL
- Cmax (human, plasma, 320 mg dosage as free base equivalent, single oral dose, read-out: mean maximum blood plasma concentration (mean Cmax) of the free base): 4650 ± 1810 ng/mL
- AUC(0-t) (human, plasma, 400 mg dosage as free base equivalent, single oral dose): 105000 ± 25700 ng·h/mL
- Cmax (human, plasma, 400 mg dosage as free base equivalent, single oral dose, read-out: mean maximum blood plasma concentration (mean Cmax) of the free base): 6930 ± 1660 ng/mL
- AUC(0-t) (human, plasma, 480 mg dosage as free base equivalent, single oral dose): 113000 ± 34300 ng·h/mL
- Cmax (human, plasma, 480 mg dosage as free base equivalent, single oral dose, read-out: mean maximum blood plasma concentration (mean Cmax) of the free base): 6920 ± 2190 ng/mL
- AUC(0-t) (male, human, plasma, 40 mg dosage as free base equivalent, single oral dose): 10100 ± 3110 ng·h/mL
- Cmax (male, human, plasma, 40 mg dosage as free base equivalent, single oral dose, read-out: mean maximum blood plasma concentration (mean Cmax) of the free base): 608 ± 184 ng/mL
- MRT (male, plasma, single oral dose 80 mg free base equivalent, males, human, mean, n = 6): 94 h
- Tmax (male, plasma, single oral dose 80 mg free base equivalent, males, human, median, n = 6, read-out: tmax): 2.5 h
- AUC(0-inf) (male, single oral dose 80 mg free base equivalent, males, human, mean, n = 6, free base in plasma): 87200 ng·h/mL
- Cmax (male, single oral dose 80 mg free base equivalent, males, human, mean, n = 6, free base in plasma, read-out: Cmax): 1310 ng/mL
- MRT (plasma, single oral dose 5 mg free base equivalent, human, mean, n = 6): 117 h
- Tmax (plasma, single oral dose 5 mg free base equivalent, human, median, n = 6, read-out: tmax): 4 h
- MRT (plasma, single oral dose 10 mg free base equivalent, human, mean, n = 6): 116 h
- Tmax (plasma, single oral dose 10 mg free base equivalent, human, median, n = 6, read-out: tmax): 1.5 h
- MRT (plasma, single oral dose 20 mg free base equivalent, human, mean, n = 6): 105 h
- Tmax (plasma, single oral dose 20 mg free base equivalent, human, median, n = 6, read-out: tmax): 2.77 h
- MRT (plasma, single oral dose 40 mg free base equivalent, human, mean, n = 6): 94 h
- Tmax (plasma, single oral dose 40 mg free base equivalent, human, median, n = 6, read-out: tmax): 3.5 h
- MRT (plasma, single oral dose 160 mg free base equivalent, human, mean, n = 6): 83 h
- Tmax (plasma, single oral dose 160 mg free base equivalent, human, median, n = 6, read-out: tmax): 3.5 h
- MRT (plasma, single oral dose 240 mg free base equivalent, human, mean, n = 6): 82 h
- Tmax (plasma, single oral dose 240 mg free base equivalent, human, median, n = 6, read-out: tmax): 4 h
- MRT (plasma, single oral dose 320 mg free base equivalent, human, mean, n = 6): 70 h
- Tmax (plasma, single oral dose 320 mg free base equivalent, human, median, n = 6, read-out: tmax): 2.25 h
- MRT (plasma, single oral dose 400 mg free base equivalent, human, mean, n = 6): 64 h
- Tmax (plasma, single oral dose 400 mg free base equivalent, human, median, n = 6, read-out: tmax): 4.25 h
- MRT (plasma, single oral dose 480 mg free base equivalent, human, mean, n = 6): 72 h
- Tmax (plasma, single oral dose 480 mg free base equivalent, human, median, n = 6, read-out: tmax): 3.25 h
- MRT (plasma, single oral dose 600 mg free base equivalent, human, mean, n = 6): 65 h
- Tmax (plasma, single oral dose 600 mg free base equivalent, human, median, n = 6, read-out: tmax): 4.25 h
- Tmax (plasma, single oral doses 5-600 mg free base equivalent, human, no obvious relation to dose, read-out: median tmax, range over doses): 1.5 to 4.25 h
- half-life (plasma, single oral doses 5-600 mg free base equivalent, human, read-out: mean terminal elimination half-life (t1/2z), range over doses): 52 to 85 h
- gender-related difference in exposure (single dose of 80 mg as free base equivalent, after normalization to body weight): No clinical relevant gender-related difference in exposure
- exposure as shown by AUC0-∞ at the highest dose (single dose of 600 mg as free base equivalent, human): did not cause any further rise of exposure
- dose dependence of maximum plasma concentrations (single doses from 5 mg to 400 mg as free base equivalent, human): linearly related to doses
- dose dependence of AUC0-∞ (single doses from 5 mg to 480 mg as free base equivalent, human): dose-proportional increase
